Measured values: BindingDB's records for doi:10.1021/jm00169a008 (Tsukuba Research Laboratories, 1990)
Counter-ions that a name gives are not always drawn.

Target: T1, Acetylcholinesterase (Mus musculus, UniProt P21836)
T1 sequence (P21836 whole entry): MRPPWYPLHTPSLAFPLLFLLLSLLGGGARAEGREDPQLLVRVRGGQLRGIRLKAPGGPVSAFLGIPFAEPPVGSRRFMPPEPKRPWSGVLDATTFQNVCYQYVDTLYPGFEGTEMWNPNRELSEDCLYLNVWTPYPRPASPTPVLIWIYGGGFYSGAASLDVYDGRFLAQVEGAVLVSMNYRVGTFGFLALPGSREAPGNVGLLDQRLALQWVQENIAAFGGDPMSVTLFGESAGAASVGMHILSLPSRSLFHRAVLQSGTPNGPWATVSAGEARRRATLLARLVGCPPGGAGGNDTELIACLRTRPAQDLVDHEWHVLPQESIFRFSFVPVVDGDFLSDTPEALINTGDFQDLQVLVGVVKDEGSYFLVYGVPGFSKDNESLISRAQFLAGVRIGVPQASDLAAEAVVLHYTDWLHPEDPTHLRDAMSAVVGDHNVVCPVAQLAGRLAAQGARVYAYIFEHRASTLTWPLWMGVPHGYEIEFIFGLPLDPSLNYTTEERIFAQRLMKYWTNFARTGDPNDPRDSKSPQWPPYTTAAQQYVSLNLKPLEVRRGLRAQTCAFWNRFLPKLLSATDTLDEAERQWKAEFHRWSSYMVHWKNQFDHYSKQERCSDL
Assay: Enzyme Inhibition Assay

| Compound | IC50 [µM] |
| --- | --- |
| Cc1cccc(CN2CCC(CCN(C)C(=O)c3ccccc3)CC2)c1 | 0.145 |
| CN(CCC1CCNCC1)C(=O)c1ccccc1 [(2E)-but-2-enedioic acid; N-methyl-N-[2-(piperidin-4-yl)ethyl]benzamide] | 26 |
| CN(CCC1CCN(C(=O)c2ccccc2)CC1)C(=O)c1ccccc1 [N-[2-(1-benzoylpiperidin-4-yl)ethyl]-N-methylbenzamide] | 52 |
| Cc1ccccc1CN1CCC(CCN(C)C(=O)c2ccccc2)CC1 [N-methyl-N-(2-{1-[(2-methylphenyl)methyl]piperidin-4-yl}ethyl)benzamide hydrochloride] | 0.77 |
| CN(CCC1CCN(Cc2cccc([N+](=O)[O-])c2)CC1)C(=O)c1ccccc1 [N-methyl-N-(2-{1-[(3-nitrophenyl)methyl]piperidin-4-yl}ethyl)benzamide hydrochloride] | 0.37 |
| CN(CCC1CCN(Cc2ccc([N+](=O)[O-])cc2)CC1)C(=O)c1ccccc1 [N-methyl-N-(2-{1-[(4-nitrophenyl)methyl]piperidin-4-yl}ethyl)benzamide hydrochloride] | 3.3 |
| CN(CCC1CCN(CCc2ccccc2)CC1)C(=O)c1ccccc1 [N-methyl-N-{2-[1-(2-phenylethyl)piperidin-4-yl]ethyl}benzamide hydrochloride] | 13 |
